Measured values: US11452292B2, “Biofilm inhibitor and method of inhibiting biofilm” (NDSU Research Foundation, priority 2017, dated 2022)
≈ marks a conversion by molar mass, not a printed value. Like-named read-outs stand apart in the source and are kept apart here.

Assays:
[1] = system: flhD; test: flhD, supplement/control, TB medium; format: cell-based, E. coli K-12
[2] = system: E. coli K-12; test: Biofilm, supplement/control, TB medium; format: cell-based
[3] = system: E. coli K-12; format: cell-based
[4] = system: S. aureus; test: Biofilm amounts on PEA containing polyurethane relative to plain polyurethane; format: cell-based, Staphylococcus aureus; conditions: 5 wt. % PEA in polyurethane vs 0% PEA
Description: The instant inventors modified a material that is commonly used in clinical and food processing contexts, polyurethane, with β-phenylethylamine (PEA). To produce the PEA containing polyurethane (PU-PEA), food grade polyurethane (Zythane 7085A™) was impregnated with 0, 2.5, 5.0, and 10.0 weight percent PEA and a heat-melt extruded. At 10 wt. %, PEA formed aggregates and was not anymore uniformly distributed throughout the material (FIG. 17).
The biofilm inhibiting efficacy of 5 wt. % PEA was then tested against six bacterial strains (FIG. 18). E. coli AJW is non-pathogenic and was described as a good former of biofilm, P. aeruginosa is a pathogen that was described as a contaminant on conveyor belts, but also forms biofilm on urinary catheters. S. aureus causes staph infections and can form biofilm in intravenous catheters, E. coli O157:H7 has been studied in multiple foods and on numerous food processing surfaces, and the two E. coli UPEC strains are uropathogens that are commonly found on catheters. PU/PEA had reduced biofilm amounts relative to plain polyurethane for all strains tested. Reductions varied between 5 and 80% in depending on the bacterial pathogen. In particular, this initial PU-PEA material was able to reduce Staphylococcus aureus biofilm by 80% and biofilm of several other bacterial pathogens by 20 to 50%.

[5] = system: bacteria; test: Live/dead assay with fluorescence dyes; format: cell-based; conditions: live/dead staining, preliminary data
Experimental: To determine whether the bacteria were being adversely affected by PEA, a live/dead assay was performed where the total bacterial population and the population of dead bacteria were stained with different fluorescence dyes. […] This supports the argument that the bacterial nutrients reduce biofilm amounts without killing the bacteria, therefore, reducing the likelihood of the development of resistance.

[6] = system: E. coli O157:H7; test: Biofilm amounts in liquid beef broth at 10° C.; format: cell-based; conditions: for effect on bacterial cell counts and biofilm amounts: E. coli O157:H7 grown in liquid beef broth at 10° C.; for IC50: Escherichia coli, read-out: IC50 biofilm
[7] = system: E. coli O157:H7; test: Bacterial cell number in liquid beef broth at 10° C.; format: cell-based; conditions: Escherichia coli, read-out: IC50 cell number
[8] = system: Y. enterocolitica; test: Motility assay on motility plates; format: cell-based, Yersinia enterocolitica; conditions: 5 mg/ml of AAA, 25° C., semi solid tryptone broth agar plates
[9] = system: C. sakazakii; test: Growth and biofilm assays taken together (growth, CV, ATP); conditions: Cronobacter sakazakii, read-out: IC50 values, range over growth, CV and ATP assays
[10] = system: yadA; test: qPCR of mRNA transcript in response to AAA; conditions: 5 mg/ml AAA
[11] = system: S. marcescens; test: Planktonic growth (maximal velocity of OD600) in TSB; format: cell-based; conditions: Serratia marcescens, 30° C.
Experimental: (§1) The IC50 values were calculated using […] software (Hitachi Solutions, San Bruno, Calif.).

[12] = system: C. sakazakii; test: as above; format: cell-based; conditions: Cronobacter sakazakii, 37° C.
Experimental: as §1

[13] = system: Y. enterocolitica; test: Biofilm amounts, ATP assay, 24-well polystyrene plate; format: cell-based, Yersinia enterocolitica; conditions: Yersinia enterocolitica, Y. enterocolitica
[14] = system: S. marcescens; test: Biofilm amounts, CV assay, 24-well polystyrene plate; format: cell-based; conditions: Serratia marcescens, 30° C.
Description: (§2) Data were expressed as OD600.

[15] = system: C. sakazakii; test: as above; format: cell-based; conditions: Cronobacter sakazakii, 37° C.
Description: as §2

[16] = system: virF; test: qPCR of mRNA transcript in response to AAA; conditions: 5 mg/ml AAA; biofilm, both temperatures
[17] = system: Y. enterocolitica; test: Planktonic growth (maximal velocity of OD600) in TSB; format: cell-based, Yersinia enterocolitica; conditions: Yersinia enterocolitica, Y. enterocolitica, 37° C.
Experimental: as §1

[18] = system: flhD; test: qPCR of mRNA transcript in response to AAA; conditions: 5 mg/ml AAA; biofilm associated and planktonic bacteria, 25 and 37° C.
[19] = system: Y. enterocolitica; test: Growth and biofilm assays taken together (growth, CV, ATP); conditions: Yersinia enterocolitica, read-out: IC50 values, range over growth, CV and ATP assays
[20] = system: S. marcescens; test: as above; conditions: Serratia marcescens, read-out: IC50 values, range over growth, CV and ATP assays
[21] = system: ymoA; test: qPCR of mRNA transcript in response to AAA; conditions: 5 mg/ml AAA
[22] = system: C. sakazakii; test: Biofilm amounts, ATP assay, 24-well polystyrene plate; format: cell-based; conditions: Cronobacter sakazakii, 37° C.
[23] = system: S. marcescens; test: as above; format: cell-based; conditions: Serratia marcescens, 30° C.
[24] = system: Y. enterocolitica; test: Biofilm amounts, CV assay, 24-well polystyrene plate; format: cell-based, Yersinia enterocolitica; conditions: Yersinia enterocolitica, Y. enterocolitica
Description: as §2

For `NCCc1ccccc1` [PEA, β-phenylethylamine], the “Ratio, flhD (supplement/control)” value [1] was 1.3, the “Ratio, biofilm (supplement/control)” value [2] was 1.1 and the “Ratio, growth (supplement/control)” value [3] was 0.81. The “reduction of Staphylococcus aureus biofilm” value [4] was 80%, the “viability of the bacteria” value [5] was “not impacted” and the “effect on bacterial cell counts and biofilm amounts” value [6] was “inhibit bacterial cell counts and biofilm amounts”. For the same molecule, the IC50 [6] was 0.34 mg/mL (≈ 2.81 mM) and the IC50 [7] was 0.32 mg/mL (≈ 2.64 mM).

For `Cc1c[nH]c(=O)[nH]c1=O` [thymine], the “effect on bacterial cell counts and biofilm amounts” value [6] was “inhibit bacterial cell counts and biofilm amounts”.

`N[C@@H]1C(O)O[C@H](CO)[C@@H](O)[C@@H]1O` (stereo partly drawn) [D-mannosamine] was tested, and the “effect on bacterial cell counts and biofilm amounts” value [6] was “inhibit bacterial cell counts and biofilm amounts”.

For `O=C[C@H](O)[C@@H](O)[C@H](O)CO` [D-xylose], the “Ratio, flhD (supplement/control)” value ([1]; E. coli K-12, TB, 25° C.) was 0.56, the “effect on growth and biofilm amounts” value [2] was “inhibitors of growth and biofilm amounts” and the “Ratio, biofilm (supplement/control)” value ([2]; E. coli K-12, TB, 25° C.) was 0.59. For the same molecule, the “Ratio, growth (supplement/control)” value ([3]; E. coli K-12, TB, 25° C.) was 0.91.

In the case of `O=C[C@H](O)[C@H](O)[C@@H](O)CO` [L-lyxose], the “Ratio, flhD (supplement/control)” value [1] is reported as 0.68, the “Ratio, biofilm (supplement/control)” value [2] is reported as 0.71 and the “Ratio, growth (supplement/control)” value [3] is reported as 0.98. For the same molecule, the “effect on bacterial cell counts and biofilm amounts” value [6] was “inhibit bacterial cell counts and biofilm amounts”, the IC50 [6] was 76 mg/mL (≈ 506 mM) and the IC50 [7] was 72 mg/mL (≈ 480 mM).

For `CC(=O)CC(=O)O` [AAA, acetoacetate], the “motility in the presence of AAA” value [8] was “about 0.25 mm/h”, the IC50 [9] was 20 to 24 mg/mL (≈ 196 to 235 mM) and the “reduction of mRNA levels for yadA” value ([10]; biofilm bound bacteria at 25° C.) was ~10 fold. The “reduction of mRNA levels for yadA” value ([10]; planktonic bacteria at 37° C.) was “approximately 20 fold”, the IC50 [11] was 29 mg/mL (≈ 284 mM) and the IC50 [12] was 20 mg/mL (≈ 196 mM). The IC50 ([13]; 25° C.) was 18 mg/mL (≈ 176 mM), the IC50 ([13]; 37° C.) was 12 mg/mL (≈ 118 mM) and the IC50 [14] was 35 mg/mL (≈ 343 mM). For the same molecule, the IC50 [15] was 22 mg/mL (≈ 215 mM), the “reduction of virF transcript” value [16] was “about 3 fold” and the IC50 [17] was 11 mg/mL (≈ 108 mM). For the same molecule, the “reduction of mRNA levels of flhD” value [18] was “approximately 5 fold”, the IC50 [19] was 11 to 14 mg/mL (≈ 108 to 137 mM) and the IC50 [20] was 24 to 35 mg/mL (≈ 235 to 343 mM). For the same molecule, the “effect of AAA on ymoA transcription” value [21] was “no effect”, the IC50 [22] was 24 mg/mL (≈ 235 mM) and the IC50 [23] was 24 mg/mL (≈ 235 mM). It also gave an IC50 ([24]; 25° C.) of 26 mg/mL (≈ 255 mM) and an IC50 ([24]; 37° C.) of 14 mg/mL (≈ 137 mM).

For `NC(=O)C[C@@H](N)C(=O)O` [D-asparagine], the “Ratio, flhD (supplement/control)” value [1] was 1.2, the “Ratio, biofilm (supplement/control)” value [2] was 1.07 and the “Ratio, growth (supplement/control)” value [3] was 0.9. The “effect on bacterial cell counts and biofilm amounts” value [6] was “inhibit bacterial cell counts and biofilm amounts”, the IC50 [6] was 0.2 mg/mL (≈ 1.51 mM) and the IC50 [7] was 0.62 mg/mL (≈ 4.69 mM).

`CCCCCCC(N)C(=O)O` (racemic) [D,L-α-aminocaprylic acid] was tested, and the “Ratio, flhD (supplement/control)” value [1] was 0.55, the “Ratio, biofilm (supplement/control)” value [2] was 0.85 and the “Ratio, growth (supplement/control)” value [3] was 0.26. The “effect on bacterial cell counts and biofilm amounts” value [6] was “inhibit bacterial cell counts and biofilm amounts”, the IC50 [6] was 1.84 mg/mL (≈ 11.6 mM) and the IC50 [7] was 1.96 mg/mL (≈ 12.3 mM).

For `O=P(O)(O)OCC(O)CO` (racemic) [D,L-glycerol phosphate], the “effect on bacterial cell counts and biofilm amounts” value [6] was “inhibit bacterial cell counts and biofilm amounts”.

With `CCC(=O)C(=O)O` [α-keto-butyric acid] the “Ratio, flhD (supplement/control)” value ([1]; E. coli K-12, TB, 25° C.) was 0.57, the “effect on growth and biofilm amounts” value [2] was “inhibitors of growth and biofilm amounts” and the “Ratio, biofilm (supplement/control)” value ([2]; E. coli K-12, TB, 25° C.) was 0.62. The “Ratio, growth (supplement/control)” value ([3]; E. coli K-12, TB, 25° C.) was 0.54.
